Results as given in patent US7259166B2, “Substituted-cycloalkyl and oxygenated-cycloalkyl glucokinase activators” (Hoffmann-La Roche Inc., priority 2002, dated 2007).

Key:
C57BL/6J mice = assay: Glucokinase activator in vivo screen (blood glucose after oral dosing); conditions: oral gavage 50 mg/kg, two hour fast, blood glucose at 1, 2, 4 and 6 hours post dose
Method: Glucokinase Activator In Vivo Screen Protocol
C57BL/6J mice are orally dosed via gavage with Glucokinase (GK) activator at 50 mg/kg body weight following a two hour fasting period. Blood glucose determinations are made five times during the six hour post-dose study period.
Mice (n=6) are weighed and fasted for a two hour period prior to oral treatment.

SMILES	melting point [°C]	glucokinase activator in vivo activity when administered orally (decrease in blood glucose compared to vehicle) (C57BL/6J mice)
O=C(Nc1nccs1)C(CC1CCCO1)c1ccc(Cl)c(Cl)c1 (stereo not shown) [Example 2, 2-(3,4-Dichloro-phenyl)-3-(tetrahydro-furan-2-yl)-N-thiazol-2-yl-propionamide]	69 to 71	
CNC(=O)NC(=O)C(CC1CCCCO1)c1ccc(Cl)c(Cl)c1 (stereo not shown) [Example 7, 1-[2-(3,4-Dichloro-phenyl)-3-(tetrahydro-pyran-2-yl)-propionyl]-3-methyl urea]	172.8 to 174.2	
CS(=O)(=O)c1ccc(C(CC2CCOCC2)C(=O)Nc2cnc(Br)cn2)cc1Cl (stereo not shown) [Example 21, N-(5-Bromo-pyrazin-2-yl)-2-(3-chloro-4-methanesulfonyl-phenyl)-3-(tetrahydro-pyran-4-yl)-propionamide]		excellent glucokinase activator in vivo activity
CS(=O)(=O)c1ccc(C(CC2CCOCC2)C(=O)Nc2cnc(/C(N)=N/O)cn2)cc1Cl (stereo not shown) [Example 23]	137.2 to 140.5	excellent glucokinase activator in vivo activity
CNC(=O)NC(=O)C(CC1CCCC1O)c1ccc(Cl)c(Cl)c1 (stereo not shown) [Example 24, 1-[2-(3,4-Dichloro-phenyl)-3-(2-hydroxy-cyclopentyl)-propionyl]-3-methyl-urea]	62 to 64	
O=C(Nc1nccs1)C(CC1CCCC1O)c1ccc(Cl)c(Cl)c1 (stereo not shown) [Example 25, 2-(3,4-Dichloro-phenyl)-3-(2-hydroxy-cyclopentyl)-N-thiazol-2-yl-propionamide]	86 to 88	
CS(=O)(=O)c1ccc(C(CC2CCCC2O)C(=O)Nc2nccs2)cc1 (stereo not shown) [Example 26, 3-(2-Hydroxy-cyclopentyl)-2-(4-methanesulfonyl-phenyl)-N-thiazol-2-yl-propionamide]	205 to 206	
CNC(=O)NC(=O)C(CC1CCCC1=O)c1ccc(Cl)c(Cl)c1 (stereo not shown) [Example 27, 1-[2-(3,4-Dichloro-phenyl)-3-(2-oxo-cyclopentyl)-propionyl]-3-methyl-urea]	63 to 65	
O=C1CCCC1CC(C(=O)Nc1nccs1)c1ccc(Cl)c(Cl)c1 (stereo not shown) [Example 28, 2-(3,4-Dichloro-phenyl)-3-(2-oxo-cyclopentyl)-N-thiazol-2-yl-propionamide]	79 to 81	
CS(=O)(=O)c1ccc(C(CC2CCCC2=O)C(=O)Nc2nccs2)cc1 (stereo not shown) [Example 29, 2-(4-Methanesulfonyl-phenyl)-3-(2-oxo-cyclopentyl)-N-thiazol-2-yl-propionamide]	228 to 230	
CO/N=C1/CCCC1CC(C(=O)Nc1cnccn1)c1ccc(S(C)(=O)=O)c(Cl)c1 (stereo not shown) [Example 33, 2-(3-Chloro-4-methanesulfonyl-phenyl)-3-(2-methoxyimino-cyclopentyl)-N-pyrazin-2-yl-propionamide]	74 to 76	
CNC(=O)NC(=O)C(CC1CCC(O)C1)c1ccc(Cl)c(Cl)c1 (stereo not shown) [Example 35, 1-[2-(3,4-Dichloro-phenyl)-3-(3-hydroxy-cyclopentyl)-propionyl]-3-methyl-urea]	82 to 84	
CS(=O)(=O)c1ccc(C(CC2CCC(O)C2)C(=O)Nc2nccs2)cc1 (stereo not shown) [Example 37, 3-(3-Hydroxy-cyclopentyl)-2-(4-methanesulfonyl-phenyl)-N-thiazol-2-yl-propionamide]	69 to 72	
CC(=O)OC1CCC(CC(C(=O)Nc2nccs2)c2ccc(Cl)c(Cl)c2)C1 (stereo not shown) [Example 40, Acetic acid 3-[2-(3,4-dichloro-phenyl)-2-(thiazol-2-ylcarbamoyl)-ethyl]-cyclopentyl ester]	49 to 52	
CNC(=O)NC(=O)C(CC1CCC(=O)C1)c1ccc(Cl)c(Cl)c1 (stereo not shown) [Example 42, 1-[2-(3,4-Dichloro-phenyl)-3-(3-oxo-cyclopentyl)-propionyl]-3-methyl-urea]	70 to 74	
O=C1CCC(CC(C(=O)Nc2nccs2)c2ccc(Cl)c(Cl)c2)C1 (stereo not shown) [Example 43, 2-(3,4-Dichloro-phenyl)-3-(3-oxo-cyclopentyl)-N-thiazol-2-yl-propionamide]	146 to 148	

SMILES	melting point [°C]	glucokinase activator in vivo activity when administered orally (decrease in blood glucose compared to vehicle) (C57BL/6J mice)
CS(=O)(=O)c1ccc(C(CC2CCC(=O)C2)C(=O)Nc2nccs2)cc1 (stereo not shown) [Example 44, 2-(4-Methanesulfonyl-phenyl)-3-(3-oxo-cyclopentyl)-N-thiazol-2-yl-propionamide]	94 to 97	
CS(=O)(=O)c1ccc(C(CC2CCC(=O)C2)C(=O)Nc2cnc(Br)cn2)cc1Cl (stereo not shown) [Example 49, N-(5-Bromo-pyrazin-2-yl)-2-(3-chloro-4-methanesulfonyl-phenyl)-3-(3-oxo-cyclopentyl)-propionamide]	97 to 103	excellent glucokinase activator in vivo activity
O=C(Nc1nccs1)C(CC1CC/C(=N/O)C1)c1ccc(Cl)c(Cl)c1 (stereo not shown) [Example 50, 2-(3,4-Dichloro-phenyl)-3-(3-hydroxyimino-cyclopentyl)-N-thiazol-2-yl-propionamide]	98 to 101	
CS(=O)(=O)c1ccc(C(CC2CC/C(=N/O)C2)C(=O)Nc2cnccn2)cc1Cl (stereo not shown) [Example 51, 2-(3-Chloro-4-methanesulfonyl-phenyl)-3-(3-hydroxyimino-cyclopentyl)-N-pyrazin-2-yl-propionamide]	205 to 207	
CS(=O)(=O)c1ccc(C(CC2CC/C(=N/O)C2)C(=O)Nc2cnc(Br)cn2)cc1Cl (stereo not shown) [Example 52, N-(5-Bromo-pyrazin-2-yl)-2-(3-chloro-4-methanesulfonyl-phenyl)-3-(3-hydroxyimino-cyclopentyl)-propionamide]	100 to 106	excellent glucokinase activator in vivo activity
CO/N=C1/CCC(CC(C(=O)Nc2nccs2)c2ccc(Cl)c(Cl)c2)C1 (stereo not shown) [Example 53, 2-(3,4-Dichloro-phenyl)-3-(3-methoxyimino-cyclopentyl)-N-thiazol-2-yl-propionamide]	69 to 72	
CO/N=C1/CCC(CC(C(=O)Nc2cnccn2)c2ccc(S(C)(=O)=O)c(Cl)c2)C1 (stereo not shown) [Example 54, 2-(3-Chloro-4-methanesulfonyl-phenyl)-3-(3-methoxyimino-cyclopentyl)-N-pyrazin-2-yl-propionamide]	85 to 87	excellent glucokinase activator in vivo activity
CO/N=C1/CCC(CC(C(=O)Nc2cnc(Br)cn2)c2ccc(S(C)(=O)=O)c(Cl)c2)C1 (stereo not shown) [Example 55, N-(5-Bromo-pyrazin-2-yl)-2-(3-chloro-4-methanesulfonyl-phenyl)-3-(3-methoxyimino-cyclopentyl)-propionamide]	91 to 97	excellent glucokinase activator in vivo activity
O=C(Nc1nccs1)C(CC1CCC(F)(F)C1)c1ccc(Cl)c(Cl)c1 (stereo not shown) [Example 56, 2-(3,4-Dichloro-phenyl)-3-(3,3-difluoro-cyclopentyl)-N-thiazol-2-yl-propionamide]	154 to 156	
CC1(O)CCC(CC(C(=O)Nc2cnccn2)c2ccc(S(C)(=O)=O)c(Cl)c2)C1 (stereo not shown) [Example 57, 2-(3-Chloro-4-methanesulfonyl-phenyl)-3-(3-hydroxy-3-methyl-cyclopentyl)-N-pyrazin-2-yl-propionamide]	78 to 84	
CS(=O)(=O)c1ccc(C(CC2CCC(=O)CC2)C(=O)Nc2cnc(Br)cn2)cc1Cl (stereo not shown) [Example 59, N-(5-Bromo-pyrazin-2-yl)-2-(3-chloro-4-methanesulfonyl-phenyl)-3-(4-oxo-cyclohexyl)-propionamide]		excellent glucokinase activator in vivo activity
CS(=O)(=O)c1ccc([C@@H](CC2CCC(=O)CC2)C(=O)Nc2cnc(Br)cn2)cc1Cl [Example 60, N-(5-Bromo-pyrazin-2-yl)-2(R)-(3-chloro-4-methanesulfonyl-phenyl)-3-(4-oxo-cyclohexyl)-propionamide]		excellent glucokinase activator in vivo activity
CS(=O)(=O)c1ccc([C@@H](CC2CCC(=O)CC2)C(=O)Nc2cnc(Cl)cn2)cc1Cl [Example 61, 2(R)-(3-Chloro-4-methanesulfonyl-phenyl)-N-(5-chloro-pyrazin-2-yl)-3-(4-oxo-cyclohexyl)-propionamide]		excellent glucokinase activator in vivo activity
CS(=O)(=O)c1ccc(C(CC2CCC(=NO)CC2)C(=O)Nc2cnc(Br)cn2)cc1Cl (stereo not shown) [Example 66, N-(5-Bromo-pyrazin-2-yl)-2-(3-chloro-4-methanesulfonyl-phenyl)-3-(4-hydroxyimino-cyclohexyl)-propionamide]		excellent glucokinase activator in vivo activity
CS(=O)(=O)c1ccc([C@@H](CC2CCC(=NO)CC2)C(=O)Nc2cnc(Br)cn2)cc1Cl (stereo partly drawn) [Example 67, N-(5-Bromo-pyrazin-2-yl)-2(R)-(3-chloro-4-methanesulfonyl-phenyl)-3-(4-hydroxyimino-cyclohexyl)-propionamide]		excellent glucokinase activator in vivo activity
CS(=O)(=O)c1ccc([C@@H](CC2CCC(=NO)CC2)C(=O)Nc2cnc(Cl)cn2)cc1Cl (stereo partly drawn) [Example 68, 2(R)-(3-Chloro-4-methanesulfonyl-phenyl)-N-(5-chloro-pyrazin-2-yl)-3-(4-hydroxyimino-cyclohexyl)-propionamide]		excellent glucokinase activator in vivo activity
